Test results: US20170087106A1, “Method for supporting gut health” (priority 2015, published 2017)
Marks after values point to notes of the source that are not given here.

Tests used:
COX-2 = experiment: DCA-induced IBS in rats: colonic COX-2 expression by qPCR; type: in vivo, rat; settings: colonic tissue, two weeks oral daily, mean ± SEM
Method: (§1) Male Sprague Dawley rats (240-320 g) were administered DCA once daily on 3 consecutive days, and then divided into the different experimental groups (n=8): three received orally and daily CPM (40 and 100 mg/kg) or Gabapentin (70 mg/kg); a non IBS and an untreated control IBS group were also included. One and two weeks after, abdominal withdrawal reflex to colorectal distension (CRD) was semi quantitatively scored. Also the referred pain was evaluated with Von Frey filaments. After two weeks of treatment, all rats were sacrificed and the expression of different markers IL-1β and COX-2 evaluated in the colonic tissue by qPCR.

[1] = test system: experimental model of irritable bowel syndrome (IBS) in rats induced by deoxycholic acid (DCA); experiment: DCA-induced IBS in rats: referred pain with Von Frey filaments (AUC); type: in vivo, rat; settings: for referred pain (in words): Von Frey filaments; for AUC: oral daily, mean ± SEM
Method: as §1

[2] = test system: experimental model of irritable bowel syndrome (IBS) in rats induced by deoxycholic acid (DCA); experiment: DCA-induced IBS in rats: abdominal withdrawal reflex to colorectal distension (CRD); type: in vivo, rat; settings: oral daily, mean ± SEM
Method: as §1

IL-1β [3] = experiment: DCA-induced IBS in rats: colonic IL-1β expression by qPCR; type: in vivo, rat; settings: colonic tissue, two weeks oral daily, mean ± SEM
Method: as §1

IL-12 = experiment: TNBS rat colitis: colonic IL-12 mRNA by real-time PCR; type: in vivo; settings: colon, oral daily 7 days, mean ± SEM
Method: (§2) Female Wistar rats (180-200 g) were randomly assigned to nine groups (n=10). Three groups received treatment with CaPyr (20, 40 and 100 mg/kg); other three received treatment with ethyl pyruvate (20, 40 and 100 mg/kg); and the remaining was treated with sulphasalazine (30 mg/kg). All compounds were dissolved in 1 ml of carboxymethylcellulose (0.2%) in water solution, and administered daily by oral gavage. An untreated TNBS control group and a non-colitic group were included for reference, which received the vehicle used to administer the test compounds. Colonic inflammation was induced in control and treated groups as generally described (see Galvez et al. 2014). Briefly, rats were fasted overnight, anesthetized with halothane and given TNBS dissolved in 0.25 ml of 50% ethanol (v/v) by means of a Teflon cannula inserted 8 cm through the anus. During and after TNBS administration, the rats were kept in a head-down position until they recovered from anaesthesia, and then returned to their cages. Rats from the non-colitic group were administered intracolonically 0.25 ml of phosphate buffered saline instead of TNBS. The treatments were given from the day of the colitis induction until the sacrifice of the rats with an overdose of halothane, seven days later. Animal body weights, occurrence of diarrhoea, and water and food intake were recorded daily throughout all the experiments. Once the animals were sacrificed, the colon was removed aseptically and placed on an ice-cold plate, longitudinally opened and cleaned from their luminal contents with cold saline. Afterwards, it was weighed and its length measured under a constant load (2 g). Each colon was scored for macroscopically visible damage on a 0-10 scale by two observers unaware of the experiment, according to the criteria described before (see Galvez et al. 2014). Colon samples (0.5 cm^2) containing all the layers were taken from a region of the inflamed colon corresponding to the adjacent segment to the gross macroscopic damage and were fixed in 4% buffered formaldehyde for the histological studies. Equivalent colonic segments were also obtained from the non-colitic group. The colon was subsequently minced, aliquoted and kept frozen at −80° C. until biochemical determinations and RNA extraction was performed.
(§3) Analysis of gene expression in colonic samples by RT-qPCR Total RNA from colonic samples was isolated using Trizol® (Thermo Fisher Scientific Inc., Waltham, Mass. USA) following the manufacturer's protocol. All RNA samples were quantified with the Thermo Scientific NanoDrop™ 2000 Spectrophotometer (Thermo Fisher Scientific Inc., Waltham, Mass. USA) and […] of RNA were reverse transcribed using oligo(dT) primers (Promega, Southampton, UK).
(§4) Real time quantitative PCR amplification and detection was performed on optical-grade 48 well plates in an Eco™ Real-Time PCR System (Illumina, CA, USA) with 20 ng of cDNA, the KAPA SYBR® FAST qPCR Master Mix (Illumina, CA, USA) and specific primers at their annealing temperature (Ta). To normalize mRNA expression, the expression of the housekeeping gene, glyceraldehyde-3-phosphate dehydrogenase (GAPDH) was measured. The mRNA relative quantitation was calculated using the ΔΔCt method.

IL-1β [4] = experiment: TNBS rat colitis: colonic IL-1β mRNA by real-time PCR; type: in vivo; settings: colon, oral daily 7 days, mean ± SEM
Method: as §2, §3, §4

glutathione (GSH) = experiment: TNBS rat colitis: colonic total glutathione (GSH) content; type: in vivo; settings: colonic tissue, oral daily 7 days, mean ± SEM
Method: as §2
(§5) Myeloperoxidase (MPO) activity was measured according to the technique described previously (Krawiszet al., 1984); the results were expressed as MPO units per gram of wet tissue; one unit of MPO activity was defined as that degrading 1 μmol hydrogen peroxide/min at 25° C. Total glutathione (GSH) content was quantified with the recycling assay described by Anderson (1985), and the results were expressed as nmol/g wet tissue. In order to evaluate tissue IL-1β levels, the colonic samples were homogenized in phosphate buffered saline supplemented with 0.1% sodium dodecyl sulfate (SDS), 0.1% sodium deoxycholate, 1% Triton X-100 and protease and phosphatase inhibitors (aprotinin, leupeptin and phenylmethylsulfonyl fluoride). The cytokine was quantified by enzyme-linked immunoabsorbent assay (R&D Systems Inc., Minneapolis, Minn., USA) and the results were expressed as pg/g wet tissue.

myeloperoxidase (MPO) = experiment: TNBS rat colitis: colonic myeloperoxidase (MPO) activity; type: in vivo; settings: colonic tissue, oral daily 7 days, mean ± SEM
Method: as §2, §5

[5] = test system: TNBS experimental rat colitis; experiment: TNBS rat colitis: microscopic (histological) damage score; type: in vivo; settings: oral daily 7 days, mean ± SEM
Method: as §2
Cross-sections were selected and embedded in paraffin. Full-thickness sections of 5 μm were obtained at different levels and stained with haematoxylin and eosin. The histological damage was evaluated by a pathologist observer, who was blinded to the experimental groups, according to the criteria previously described by Galvez.

iNOS = experiment: TNBS rat colitis: colonic iNOS mRNA by real-time PCR; type: in vivo; settings: colon, oral daily 7 days, mean ± SEM
Method: as §2, §3, §4

IL-1β [6] = experiment: TNBS rat colitis: colonic IL-1β by ELISA; type: in vivo; settings: colonic tissue, oral daily 7 days, mean ± SEM
Method: as §2, §5

TFF-3 = experiment: TNBS rat colitis: colonic TFF-3 mRNA by real-time PCR; type: in vivo; settings: colon, oral daily 7 days, mean ± SEM
Method: as §2, §3, §4

IL-17 = experiment: TNBS rat colitis: colonic IL-17 mRNA by real-time PCR; type: in vivo; settings: colon, oral daily 7 days, mean ± SEM
Method: as §2, §3, §4

[7] = test system: TNBS experimental rat colitis; experiment: TNBS rat colitis: colonic macroscopic damage score and weight/length ratio; type: in vivo; settings: for Damage Score (0-10) / Weight/length: TNBS rat colitis, oral daily 7 days, mean ± SEM; for Weight/length: colon
Method: as §2

MUC-2 = experiment: TNBS rat colitis: colonic MUC-2 mRNA by real-time PCR; type: in vivo; settings: colon, oral daily 7 days, mean ± SEM
Method: as §2, §3, §4

ICAM-1 = experiment: TNBS rat colitis: colonic ICAM-1 mRNA by real-time PCR; type: in vivo; settings: colon, oral daily 7 days, mean ± SEM
Method: as §2, §3, §4

CINC-1 = experiment: TNBS rat colitis: colonic CINC-1 mRNA by real-time PCR; type: in vivo; settings: colon, oral daily 7 days, mean ± SEM
Method: as §2, §3, §4

IL-23 = experiment: TNBS rat colitis: colonic IL-23 mRNA by real-time PCR; type: in vivo; settings: colon, oral daily 7 days, mean ± SEM
Method: as §2, §3, §4

MCP-1 = experiment: TNBS rat colitis: colonic MCP-1 mRNA by real-time PCR; type: in vivo; settings: colon, oral daily 7 days, mean ± SEM
Method: as §2, §3, §4

IL-6 = experiment: TNBS rat colitis: colonic IL-6 mRNA by real-time PCR; type: in vivo; settings: colon, oral daily 7 days, mean ± SEM
Method: as §2, §3, §4

NCC1(CC(=O)O)CCCCC1 [Gabapentin]
qPCR COX-2 (COX-2; 30 mg/kg (table)): 1.74 ± 0.36^c fold increase
referred pain (in words) [1]: attenuated
AUC ([1]; 30 mg/kg (table)): 27.30 ± 6.83^a arbitrary units
CRD ([2]; 30 mg/kg (table)): 0.25 ± 0.1^a units
qPCR IL-1β (IL-1β [3]; 30 mg/kg (table)): 8.28 ± 1.38^c fold increase

calcium pyruvate [CaPyr]
IL-12 mRNA expression (IL-12; 20 mg/kg): 1.09 ± 0.13 fold increase
IL-12 mRNA expression (IL-12; 40 mg/kg): 0.66 ± 0.18 fold increase
IL-12 mRNA expression (IL-12; 100 mg/kg): 1.62 ± 0.30 fold increase
IL-1β mRNA expression (IL-1β [4]; 20 mg/kg): 3.90 ± 0.61 fold increase
IL-1β mRNA expression (IL-1β [4]; 40 mg/kg): 2.40 ± 0.61 fold increase
IL-1β mRNA expression (IL-1β [4]; 100 mg/kg): 4.80 ± 0.90 fold increase
GSH (glutathione (GSH); 20 mg/kg): 389 ± 55 nmol/g tissue
GSH (glutathione (GSH); 40 mg/kg): 675 ± 67 nmol/g tissue
GSH (glutathione (GSH); 100 mg/kg): 768 ± 100 nmol/g tissue
MPO (myeloperoxidase (MPO); 20 mg/kg): 48.2 ± 7.2 mU/g tissue
MPO (myeloperoxidase (MPO); 40 mg/kg): 48.8 ± 8.2 mU/g tissue
MPO (myeloperoxidase (MPO); 100 mg/kg): 57.7 ± 11.5 mU/g tissue
Microscopic Damage Score (0-59) ([5]; 20 mg/kg): 27 ± 2
Microscopic Damage Score (0-59) ([5]; 40 mg/kg): 18 ± 5
Microscopic Damage Score (0-59) ([5]; 100 mg/kg): 13 ± 2
iNOS mRNA expression (iNOS; 20 mg/kg): 10.37 ± 1.83 fold increase
iNOS mRNA expression (iNOS; 40 mg/kg): 8.85 ± 3.36 fold increase
iNOS mRNA expression (iNOS; 100 mg/kg): 9.15 ± 1.53 fold increase
IL-1β (ELISA) (IL-1β [6]; 20 mg/kg): 1095.0 ± 165.0 ng/g tissue
IL-1β (ELISA) (IL-1β [6]; 40 mg/kg): 765.0 ± 60.0 ng/g tissue
IL-1β (ELISA) (IL-1β [6]; 100 mg/kg): 810.1 ± 120.0 ng/g tissue
TFF-3 mRNA expression (TFF-3; 20 mg/kg): 0.84 ± 0.23 fold increase
TFF-3 mRNA expression (TFF-3; 40 mg/kg): 0.67 ± 0.17 fold increase
TFF-3 mRNA expression (TFF-3; 100 mg/kg): 0.99 ± 0.19 fold increase
IL-17 mRNA expression (IL-17; 20 mg/kg): 0.84 ± 0.09 fold increase
IL-17 mRNA expression (IL-17; 40 mg/kg): 0.63 ± 0.27 fold increase
IL-17 mRNA expression (IL-17; 100 mg/kg): 1.83 ± 0.48 fold increase
Damage Score (0-10) ([7]; 20 mg/kg): 7.1 ± 0.4
Damage Score (0-10) ([7]; 40 mg/kg): 5.7 ± 0.4
Damage Score (0-10) ([7]; 100 mg/kg): 6.6 ± 0.6
Weight/length ([7]; 20 mg/kg): 186.0 ± 22.8 mg/cm
Weight/length ([7]; 40 mg/kg): 184.6 ± 25.1 mg/cm
Weight/length ([7]; 100 mg/kg): 198.9 ± 15.0 mg/cm
effect in TNBS-induced colitis (in words) ([7]; rats, 20, 40 and 100 mg/kg body weight, 7 days oral treatment): intestinal anti-inflammatory effects
efficacy in TNBS colitis compared with the other treatments (in words) ([7]; rats, 7 days oral treatment): more effective than ethyl pyruvate and even better than the therapeutic drug Sulphasalazine
MUC-2 mRNA expression (MUC-2; 20 mg/kg): 0.50 ± 0.14 fold increase
MUC-2 mRNA expression (MUC-2; 40 mg/kg): 0.53 ± 0.16 fold increase
MUC-2 mRNA expression (MUC-2; 100 mg/kg): 0.56 ± 0.11 fold increase
ICAM-1 mRNA expression (ICAM-1; 20 mg/kg): 1.64 ± 0.25 fold increase
ICAM-1 mRNA expression (ICAM-1; 40 mg/kg): 0.95 ± 0.19 fold increase
ICAM-1 mRNA expression (ICAM-1; 100 mg/kg): 2.77 ± 0.44 fold increase
CINC-1 mRNA expression (CINC-1; 20 mg/kg): 3.59 ± 0.49 fold increase
CINC-1 mRNA expression (CINC-1; 40 mg/kg): 2.93 ± 0.57 fold increase
CINC-1 mRNA expression (CINC-1; 100 mg/kg): 3.50 ± 0.90 fold increase
IL-23 mRNA expression (IL-23; 20 mg/kg): 1.47 ± 0.24 fold increase
IL-23 mRNA expression (IL-23; 40 mg/kg): 1.02 ± 0.21 fold increase
IL-23 mRNA expression (IL-23; 100 mg/kg): 1.98 ± 0.30 fold increase
MCP-1 mRNA expression (MCP-1; 20 mg/kg): 3.03 ± 0.49 fold increase
MCP-1 mRNA expression (MCP-1; 40 mg/kg): 1.80 ± 0.37 fold increase
MCP-1 mRNA expression (MCP-1; 100 mg/kg): 2.13 ± 0.41 fold increase
IL-6 mRNA expression (IL-6; 20 mg/kg): 5.41 ± 1.01 fold increase
IL-6 mRNA expression (IL-6; 40 mg/kg): 3.20 ± 1.20 fold increase
IL-6 mRNA expression (IL-6; 100 mg/kg): 4.61 ± 1.01 fold increase

calcium pyruvate monohydrate [CPM]
qPCR COX-2 (COX-2; 40 mg/kg): 2.47 ± 0.58^c fold increase
qPCR COX-2 (COX-2; 100 mg/kg): 1.60 ± 0.36^c fold increase
referred pain (in words) [1]: attenuated
AUC ([1]; 40 mg/kg): 104.65 ± 20.48^a arbitrary units
AUC ([1]; 100 mg/kg): 63.70 ± 22.75^a arbitrary units
CRD ([2]; 40 mg/kg): 1.30 ± 0.14^c units
CRD ([2]; 100 mg/kg): 0.70 ± 0.14^a,c units
qPCR IL-1β (IL-1β [3]; 40 mg/kg): 7.82 ± 2.07^c fold increase
qPCR IL-1β (IL-1β [3]; 100 mg/kg): 5.52 ± 1.15^c fold increase
